The values that follow come from article PMC4427169, “Identification and structure solution of fragment hits against kinetoplastid N-myristoyltransferase” (Acta Crystallographica. Section F, Structural Biology …, 2015).

Where “and” joins values, the source holds several entries; their conditions need not be identical. Equal values may be shown once. Read-outs that look alike come from different tables or passages of the source.

The target of data set [1] is T1, TbNMT (Trypanosoma brucei brucei, UniProt Q388H8).
T1 sequence (Q388H8 1-446): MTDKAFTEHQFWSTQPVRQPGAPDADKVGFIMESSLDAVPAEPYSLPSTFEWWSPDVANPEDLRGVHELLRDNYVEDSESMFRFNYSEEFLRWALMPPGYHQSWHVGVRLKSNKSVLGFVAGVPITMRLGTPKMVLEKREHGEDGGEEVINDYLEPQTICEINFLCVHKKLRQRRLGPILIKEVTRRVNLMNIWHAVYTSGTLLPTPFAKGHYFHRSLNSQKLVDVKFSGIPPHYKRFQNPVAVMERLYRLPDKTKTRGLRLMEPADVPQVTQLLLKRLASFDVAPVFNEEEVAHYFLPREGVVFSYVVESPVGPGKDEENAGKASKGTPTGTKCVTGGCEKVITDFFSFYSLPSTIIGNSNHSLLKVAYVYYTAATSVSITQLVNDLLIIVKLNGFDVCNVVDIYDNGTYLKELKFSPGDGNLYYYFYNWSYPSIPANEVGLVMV
As to the kind of experiment: Radiometric SPA-based enzyme-inhibition assay, TbNMT. More on the design: The gene encoding TbNMT was cloned into a pET-15-derived expression vector; 6xHis followed by TEV cleavage site (N); made in house; host or cells: Escherichia coli Rosetta (DE3). As to conditions: single fragment concentration of 0.5 mM. It is filed as biochemical. The protocol:
(§1) Activity assays for TbNMT and LmNMT were carried out using a radiometric SPA-based assay as described previously (Frearson et al., 2010[▶]; Brand et al., 2014[▶]). Percentage inhibition (PI) was determined using a fragment concentration of 0.5 mM in the assay.

Data set [2] concerns the target T1, TbNMT. Description: Fragment screen by ligand-observed NMR spectroscopy (STD, water-LOGSY, CPMG) with DDD85646 competition. As to conditions: fragments at 500 µM, binding and competition with 50 µM DDD85646 in STD.
Description: TbNMT was prepared at 10 µM in 25 mM sodium phosphate pH 7.4 and 10% deuterated water and the cofactor myristoyl-CoA was added to a final concentration of 50 µM.
Data set [3] addresses T2, LmNMT (Leishmania major, UniProt Q4Q5S8).
T2 construct: LmNMT (5–421) was cloned into a pET-15b-derived vector; 6xHis followed by TEV cleavage site (N); made in house; host or cells: E. coli Rosetta (DE3)
As to the kind of experiment: Radiometric SPA-based enzyme-inhibition assay, LmNMT. The class given is biochemical. As to conditions: single fragment concentration of 0.5 mM. The protocol: as §1

The target in data set [4] is T2, LmNMT. As to the kind of experiment: Biolayer interferometry binding, LmNMT. As to conditions: for increase of affinity in the presence of myristoyl-CoA, LmNMT: with vs without myristoyl-CoA; for LE LmNMT, MYA (absence of cofactor) / LE LmNMT, +MYA: ligand efficiency calculated from K d; for LE LmNMT, MYA (absence of cofactor): absence of myristoyl-CoA; for LE LmNMT, +MYA: presence of myristoyl-CoA. As to the method: (§2) TbNMT and LmNMT were biotinylated by incubation with NHS-PEG4-biotin (Thermo) in a 1:1 molar ratio for 30 min at room temperature before free biotinylation reagent was removed by passage through a 2 ml Zeba desalt spin column (Thermo). Biolayer interferometry (BLI) measurements were carried out using an Octet RED 384 instrument (ForteBio). TbNMT and LmNMT were immobilized upon superstreptavidin (SSA) biosensors by incubation for 900 s at 25 and 50 µg ml^−1, respectively, before free streptavidin sites were blocked by a 60 s dip into 10 µg ml^−1 biocytin (Tocris). A control set of SSA biosensors were prepared in parallel by blocking the surface with biocytin. A seven-point concentration series was prepared for each fragment molecule in threefold dilution steps from a top concentration of 1 mM. For each set of biosensors, a 60 s baseline in buffer alone was acquired followed by a 60 s association step and a 180 s dissociation step. […] Data were processed and analysed and K d values were determined using the global fitting procedures as implemented in ForteBio Data Analysis Software v.7.0.1.5. The ligand efficiency metric was calculated using LE = −RTlnK d/heavy-atom count (Hopkins et al., 2004[▶]).

Data set [5] concerns the target T1, TbNMT. Description: Biolayer interferometry binding, TbNMT. More on the design: The gene encoding TbNMT was cloned into a pET-15-derived expression vector; 6xHis followed by TEV cleavage site (N); made in house; host or cells: Escherichia coli Rosetta (DE3). As to conditions: for increase of affinity in the presence of myristoyl-CoA, TbNMT: with vs without myristoyl-CoA; for LE TbNMT, MYA (absence of cofactor) / LE TbNMT, +MYA: ligand efficiency calculated from K d; for LE TbNMT, MYA (absence of cofactor): absence of myristoyl-CoA; for LE TbNMT, +MYA: presence of myristoyl-CoA. The protocol:
as §2

Details of data set [6]: method as in Frearson et al., 2010. The conditions noted are these: ref Frearson et al., 2010; cited from earlier work.
The mark [7] stands for this setting: BLI, absence of the cofactor myristoyl-CoA (MYA), read-out: K d LmNMT, MYA (absence of cofactor).
Setting [8] is: BLI, presence of 1 µM myristoyl-CoA (MYA), read-out: K d LmNMT, +MYA.
Where [9] appears, read: BLI, absence of the cofactor myristoyl-CoA (MYA), read-out: K d TbNMT, MYA (absence of cofactor).
[10] abbreviates: BLI, presence of 1 µM myristoyl-CoA (MYA), read-out: K d TbNMT, +MYA.

T2 sequence (Q4Q5S8 entry or part of it): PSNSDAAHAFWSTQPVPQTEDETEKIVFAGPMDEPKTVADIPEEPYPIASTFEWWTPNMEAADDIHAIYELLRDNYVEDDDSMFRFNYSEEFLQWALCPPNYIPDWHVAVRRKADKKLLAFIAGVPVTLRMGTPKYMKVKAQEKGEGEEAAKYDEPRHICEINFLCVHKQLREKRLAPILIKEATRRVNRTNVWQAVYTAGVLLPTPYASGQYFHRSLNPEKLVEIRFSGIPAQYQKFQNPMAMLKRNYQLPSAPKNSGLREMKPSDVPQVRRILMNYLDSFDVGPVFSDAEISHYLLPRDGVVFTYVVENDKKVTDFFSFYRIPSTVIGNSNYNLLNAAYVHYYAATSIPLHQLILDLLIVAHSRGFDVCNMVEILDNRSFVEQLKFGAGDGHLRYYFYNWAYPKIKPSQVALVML

Regarding `CNCc1cc(-c2ccccc2)nn1C` [Fragment 3], the “PI (%) TbNMT” value in data set [1] was found to be 70%. For the same compound, in data set [2], the NMR hit class result is on record as “class II”. In addition, the “PI (%) LmNMT” value in data set [3] turned out to be 52%. Further, the Kd in data set [4] (setting [7]) is 700 µM; in data set [4] (setting [8]), 180 µM; in data set [5] (setting [9]), 530 µM; in data set [5] (setting [10]), 200 µM. Further, the “increase of affinity in the presence of myristoyl-CoA, LmNMT” value in data set [4] (BLI) is recorded as “around fivefold”. Also, in data set [4], the “LE LmNMT, MYA (absence of cofactor)” value was 0.28. Besides, the “LE LmNMT, +MYA” value in data set [4] is reported as 0.34. In addition, the “increase of affinity in the presence of myristoyl-CoA, TbNMT” value in data set [5] (BLI) is on record as “around fivefold”. Moreover, the “LE TbNMT, MYA (absence of cofactor)” value in data set [5] was < 0.3 and 0.30. The “LE TbNMT, +MYA” value in data set [5] was > 0.3 and 0.33.
As for `CNCc1cccc(CN2CCOCC2)c1` [Fragment 2], the “PI (%) TbNMT” value in data set [1] is 36%. Moreover, the NMR hit class result in data set [2] is given as “class I”. Also, the “PI (%) LmNMT” value in data set [3] amounted to 55%. For the same compound, the Kd in data set [4] (setting [7]) amounted to 980 µM; in data set [4] (setting [8]), 200 µM; in data set [5] (setting [9]), 760 µM; in data set [5] (setting [10]) it was 90 µM. Also, in data set [4] (BLI), the “increase of affinity in the presence of myristoyl-CoA, LmNMT” value is recorded as “around fivefold”. In addition, the “LE LmNMT, MYA (absence of cofactor)” value in data set [4] is on record as 0.25. In addition, the “LE LmNMT, +MYA” value in data set [4] is recorded as 0.31. For the same compound, the “increase of affinity in the presence of myristoyl-CoA, TbNMT” value in data set [5] (BLI) is given as “around fivefold”. The “LE TbNMT, MYA (absence of cofactor)” value in data set [5] is < 0.3 and 0.26. Besides, in data set [5], the “LE TbNMT, +MYA” value is > 0.3 and 0.34.
In the case of `Nc1ccccc1N1CCNCC1` [Fragment 4], in data set [2], the NMR hit class entry is reported as “class II”. In addition, the “PI (%) LmNMT” value in data set [3] was 53%. In addition, in data set [4], the Kd stood at 98 µM and the “LE LmNMT, MYA (absence of cofactor)” value is given as 0.42. Moreover, in data set [5], the Kd came to 48 µM and the “LE TbNMT, MYA (absence of cofactor)” value is 0.45.
As to `Cc1nn(C)c(C)c1NS(=O)(=O)c1c(Cl)cc(-c2ccnc(N3CCNCC3)c2)cc1Cl` [DDD85646], the CNS exposure result in data set [6] was “lack of CNS exposure”.
